Reference: patent US8222487B2, “Application of ERF genes from Bupleurum kaoi” (National Tsing Hua University, priority 2009, dated 2012)

System: B. kaoi adventitious roots
Test: cDNA microarray of MeJA-responsive genes in adventitious roots
Type: cell-based, Bupleurum kaoi
Settings: 500 μM MeJA; microarray analysis
Experimental: Adventitious root cultures were induced from the roots of germ-free seedlings of B. kaoi and were subcultured every 6 weeks by adding 0.2 g roots to a 125 ml flask containing 50 ml of B5 liquid medium supplemented with 2 mg 1^−1 NAA. Cultures were shaken using a rotary shaker at 100 rpm at 25° C. in the dark. To quantify the effect of MeJA on saikosaponin level, adventitious roots were treated with 500 and 1000 μM MeJA 2 weeks after subculture. Total saikosaponin was measured 2 weeks after MeJA treatment. To monitor expression of MeJA-responsive genes, the nutrient medium was refreshed 4 weeks after subculture and MeJA (500 μM) was applied 2 weeks after refreshment. Roots were harvested at 13 time points (5 min; 1, 2, 8, 24 hours; 2, 4, 6, 8 days; 2, 3, 4, 5 weeks) after the addition of the MeJA. […]
The DNA microarray data were imported into GeneSpring 7.2 (Silicon Genetics) for further analyses. […] The coefficient of variation was calculated by dividing the standard deviation by the mean. Net intensities of both channels were calculated by subtraction of the median fluorescent intensity of the background from the mean fluorescent intensity of each feature. […] Fold change was calculated for each gene by dividing the average intensity of MeJA-treated samples by the average intensity of the corresponding control samples. […]

With CC/C=C\CC1C(=O)CCC1CC(=O)OC (stereo not shown) [MeJA, Methyl jasmonate] the “Two BkP450 genes (AM421810, AM421812) increase” value was 2 fold.
